Measured values as given in patent US6864249B2, “Piperidine and azetidine thrombin inhibitors” (LG Life Sciences, Ltd., priority 1998, dated 2005).
Structures can show the parent of a compound that is named as a salt. Where two headings read alike, the source gives them in different places.

Experiments:
[1] = Pharmacokinetic study for oral bioavailability in rats; format: in vivo, Male Sprague-Dawley rats; details: oral dosing in rats, 30 mg/kg
Experimental: Pharmacokinetic Studies for Determining Oral Bioavailability
Male Sprague-Dawley rats (250-300 g) were restrained individually in a surgical plate (Dae Jong Instrument Company, Seoul, Korea) as supine position. The femoral artery and the femoral vein (iv only) of rats were cannulated with polyethylene tubing (PE-50, Clay Adams, Parsippany, N.J., USA) under light ether anesthesia. After complete recovery from anesthesia, rats were given 30 mg/kg of test compound dissolved in distilled water via oral gavage or given 10 mg/kg via the femoral vein for intravenous (iv) study. Blood samples (0.25 mL) were collected from the femoral artery at 0 (for control), 1 (iv only), 5, 15, 30, 60, 90 (iv only), 120, 180, and 240 min after dosing.
Blood samples were taken into heparinized tube (25 U/mL), deproteinized with 2 volumes of methanol, and centrifuged. The resulting supernatant (60 μL) was analyzed by HPLC eluting with a mixture of 0.1% trifluoroacetic acid aqueous solution and acetonitrile with a ratio of 81% to 19%. Plasma concentration of test compound was recorded and used to calculate the pharmacokinetic parameters: maximum plasma concentration of test compound (Cmax), time of maximum plasma concentration (Tmax) area under the curve (AUC), and fraction of test compound absorbed (F).
Table 2 illustrates the pharmacokinetic results for some exemplary compounds of invention obtained upon oral dosing in rats.

[2] = biological target: T1, Thrombin prepared from human plasma (Homo sapiens, UniProt P00734); assay: In vitro enzyme assay for thrombin inhibition constants (Chromozym TH substrate, Dixon plot); format: biochemical; details: pH 7.8, room temperature
T1 construct: Thrombin used in this test was prepared from human plasma; from tissue; host or cells: human plasma
Experimental: In vitro Enzyme Assays for Determining Inhibition Constants
The activity of thrombin was measured spectrophotometrically using tosyl-Gly-Pro-Arg-p-nitroanilide acetate (Chromozym TH, Boehringer Mannheim) as a substrate. […] Each compound was dissolved in DMSO to make a 1 mM stock solution and dilutions were made thereof with assay buffer (0.1 M Tris HCl, 0.15 M NaCl, 0.1% polyethylene glycol 8000, pH 7.8). Different concentrations of inhibitor were mixed with […] of thrombin in 0.8 mL of the buffer. The mixture was incubated for 10 min at room temperature before adding 0.2 mL of the substrate to a final concentration of 20 μM. […] A graph for the reciprocal value of initial velocity to the inhibitor concentration was derived from progress curves by fitting the data using a linear regression program.

[3] = male, Sprague-Dawley, rat, plasma
[4] = male, Sprague-Dawley, rat, plasma, read-out: AUC (converted)
[5] = male, Sprague-Dawley, rat, plasma, read-out: Cmax

CS(=O)(=O)N[C@@H](C(=O)N1CCC[C@H]1C(=O)NCc1ccc(CN)s1)C(c1ccccc1)c1ccccc1 [Example 5, N-methylsulfonyl-D-diphenylalanyl-L-prolyl-[(5-aminomethyl-2-thienyl)methyl]amide.TFA]
Tmax [1, 3]: 32 min | AUC [1, 4]: 4670 ng·h/mL | Cmax [1, 5]: 1800 ng/mL | Ki [2]: 5.8 nM

COC(=O)N[C@@H](C(=O)N1CCC[C@H]1C(=O)NCc1ccc(C(=N)N)s1)C(c1ccccc1)c1ccccc1 [Example 8, N-methoxycarbonyl-D-diphenylalanyl-L-prolyl-[(5-amidino-2-thienyl)methyl]amide.TFA]
Tmax [1, 3]: 60 min | AUC [1, 4]: 26900 ng·h/mL | Cmax [1, 5]: 9600 ng/mL | Ki [2]: 0.014 nM

COC(=O)N[C@@H](C(=O)N1CCC[C@H]1C(=O)NCc1cc(C(=N)N)cs1)C(c1ccccc1)c1ccccc1 [Example 14, N-methoxycarbonyl-D-diphenylalanyl-L-prolyl-[(4-amidino-2-thienyl)methyl]amide.TFA]
Tmax [1, 3]: 80 min | Cmax [1, 5]: 4500 ng/mL | AUC [1]: 14200 ng·h/mL

N=C(N)c1ccc(CNC(=O)[C@@H]2CCCN2C(=O)[C@@H](CC2CCCCC2)NS(=O)(=O)Cc2ccccc2)s1 [Example 23, N-benzylsulfonyl-D-cyclohexylalany-L-prolyl-[(5-amidino-2-thienyl)methyl]amide.TFA]
Ki [2]: 0.03 nM

N=C(N)c1ccc(CNC(=O)[C@@H]2CCCN2C(=O)[C@@H](CC2CCCCC2)NS(=O)(=O)NC2CCCCC2)s1 [Example 24, N-cyclohexylsulfamoyl-D-cyclohexylalanyl-L-prolyl-[(5-amidino-2-thienyl)methyl]amide.TFA]
Ki [2]: 0.024 nM

CNS(=O)(=O)N[C@H](CC1CCCCC1)C(=O)N1CCC[C@H]1C(=O)NCc1ccc(C(=N)N)s1 [Example 25, N-methylsulfamoyl-D-cyclohexylalanyl-L-prolyl-[(5-amidino-2-thienyl)methyl]amide.TFA]
Ki [2]: 0.053 nM

CS(=O)(=O)N[C@@H](C(=O)N1CCC[C@H]1C(=O)NCc1csc(C(=N)N)c1)C1CCCCC1 [Example 26, N-methylsulfonyl-D-cyclohexylglycinyl-L-prolyl-[(5-amidino-3-thienyl)methyl]amide.TFA]
Ki [2]: 4.6 nM

COC(=O)N[C@@H](C(=O)N1CCC[C@H]1C(=O)NCc1csc(C(=N)N)c1)C1CCCCC1 [Example 27, N-methoxycarbonyl-D-cyclohexylglycinyl-L-prolyl-[(5-amidino-3-thienyl)methyl]amide.TFA]
Ki [2]: 13.7 nM

CC(C)(C)OC(=O)CN[C@@H](C(=O)N1CCC[C@H]1C(=O)NCc1ccc(C(=N)N)s1)C(c1ccccc1)c1ccccc1 [Example 28, N-(t-butoxycarbonyl)methyl-D-diphenylalanyl-L-prolyl-[(5-amidino-2-thienyl)methyl]amide.2AcOH]
Ki [2]: 0.062 nM

CN(CC(=O)O)[C@@H](C(=O)N1CCC[C@H]1C(=O)NCc1ccc(C(=N)N)s1)C(c1ccccc1)c1ccccc1 [Example 30, N-methyl-N-carboxymethyl-D-diphenylalanyl-L-prolyl-[(5-amidino-2-thienyl)methyl]amide.2TFA]
Ki [2]: 0.003 nM

N=C(N)c1ccc(CNC(=O)[C@@H]2CCCN2C(=O)[C@H](NS(=O)(=O)O)C(c2ccccc2)c2ccccc2)s1 [Example 31, N-hydroxysulfonyl-D-diphenylalanyl-L-prolyl-[(5-amidino-2-thienyl)methyl]amide.TFA]
Ki [2]: 0.1 nM

CS(=O)(=O)N[C@@H](C(=O)N1CC[C@H]1C(=O)NCc1ccc(C(=N)N)s1)C(c1ccccc1)c1ccccc1 [Example 32, N-methylsulfonyl-D-diphenylalanyl-L-azetidine-2-carboxyl-[(5-amidino-2-thienyl)methyl]amide.TFA]
Ki [2]: 0.053 nM

Cc1sc(CNC(=O)[C@@H]2CCCN2C(=O)[C@H](NS(C)(=O)=O)C(c2ccccc2)c2ccccc2)cc1C(=N)N [Example 33, N-methylsulfonyl-D-diphenylalanyl-L-prolyl-[(4-amidino-5-methyl-2-thienyl)methyl]amide.TFA]
Ki [2]: 0.12 nM

CS(=O)(=O)N[C@@H](C(=O)N1CCC[C@H]1C(=O)NCc1ccc(C(=N)N)o1)C(c1ccccc1)c1ccccc1 [Example 34, N-methylsulfonyl-D-diphenylalanyl-L-prolyl-[(5-amidino-2-furanyl)methyl]amide.TFA]
Ki [2]: 1.4 nM

COC(=O)N[C@@H](C(=O)N1CCC[C@H]1C(=O)NCc1ccc(C(=N)N)o1)C(c1ccccc1)c1ccccc1 [Example 35, N-methoxycabonyl-D-diphenylalanyl-L-prolyl-[(5-amidino-2-furanyl)methyl]amide.TFA]
Tmax [1, 3]: 45 min | AUC [1, 4]: 16100 ng·h/mL | Cmax [1, 5]: 7100 ng/mL | Ki [2]: 4.6 nM

N=C(N)c1csc(CNC(=O)[C@@H]2CCCN2C(=O)[C@H](NS(N)(=O)=O)C(c2ccccc2)c2ccccc2)n1 [Example 37, N-aminosulfonyl-D-diphenylalanyl-L-prolyl-[(4-amidino-2-thiazolyl)methyl]amide.TFA]
Ki [2]: 0.12 nM

Cn1c(CNC(=O)[C@@H]2CCCN2C(=O)[C@H](NS(C)(=O)=O)C(c2ccccc2)c2ccccc2)ccc1C(=N)N [Example 38, N-methylsulfonyl-D-diphenylalanyl-L-prolyl-[(5-amidino-1-methyl-2-pyrrolyl)methyl]amide.TFA]
Ki [2]: 0.23 nM

N=C(N)c1cc(CNC(=O)[C@@H]2CCCN2C(=O)[C@H](NCC(=O)O)C(c2ccccc2)c2ccccc2)cs1 [Example 39, N-carboxymethyl-D-diphenylalanyl-L-prolyl-[(5-amidino-3-thienyl)methyl]amide.2TFA]
Tmax [1, 3]: 15 min | AUC [1]: 3530 ng·h/mL | Cmax [1]: 4600 ng/mL

N=C(N)c1csc(CNC(=O)[C@@H]2CCCN2C(=O)[C@H](NCC(=O)O)C(c2ccccc2)c2ccccc2)n1 [Example 40, N-carboxymethyl-D-diphenylalanyl-L-prolyl-[(4-amidino-2-thiazolyl)methyl]amide.2TFA]
Tmax [1, 3]: 25 min | AUC [1]: 18770 ng·h/mL | Cmax [1]: 11100 ng/mL | Ki [2]: 0.6 nM

CC(C)(C)OC(=O)N[C@@H](C(=O)N1CCC[C@H]1C(=O)NCc1ccc(C(N)=NN)s1)C(c1ccccc1)c1ccccc1 [Example 42, N-Boc-D-Diphenylalanyl-L-prolyl-[(5-amidrazono-2-thienyl)methyl]amide.TFA]
Ki [2]: 84 nM

NN=C(N)c1ccc(CNC(=O)[C@@H]2CCCN2C(=O)[C@H](N)C(c2ccccc2)c2ccccc2)s1 [Example 43, D-diphenylalanyl-L-prolyl-[(5-amidrazono-2-thienyl)methyl]amide.2TFA]
Ki [2]: 9.1 nM

CS(=O)(=O)N[C@H](Cc1ccccc1)C(=O)N1CCC[C@H]1C(=O)NCc1ccc(C(N)=NN)s1 [Example 44, N-methylsulfonyl-D-phenylalanyl-L-prolyl-[(5-amidrazono-2-thienyl)methyl]amide.TFA]
Ki [2]: 395 nM
